Reference: publication PMC12635268, “Novel antimicrobial peptides and peptide-microbiome crosstalk in Appalachian salamander skin” (NPJ Biofilms and Microbiomes, 2025)
Read-outs that look alike come from different tables or passages of the source. Ends that are not written are not given here. Peptide text beside a SMILES is read from it.

Tests used:
E. cloacae ATCC 13047 = experiment: microbe, parasite or virus in culture
Experimental: (§1) Antimicrobial susceptibility testing of the 20 synthesized peptides against 17 bacterial strains of clinical relevance in the ESKAPEE panel was conducted using minimum inhibitory concentration (MIC) assays following the broth microdilution method outlined by Parker et al.[91]. The ESKAPEE panel is comprised of fourteen American Type Culture Collection (ATCC) strains and three Multidrug Resistant Organism Repository and Surveillance Network (MRSN) bacterial strains. These strains represent at least one drug-susceptible strain and one drug-resistant strain for each bacterium to assess drug efficacy across various resistance mechanisms. This panel is comprised of the following bacterial species and strains: E. faecium (ATCC 19434, ATCC 49224), S. aureus (ATCC 25923, ATCC 43300), K. pneumoniae (ATCC 700603, ATCC 13883, MRSN 1320), A. baumannii (ATCC 17978, ATCC 19606, MRSN 959), P. aeruginosa (ATCC 15692, ATCC 27853, MRSN 5519), E. cloacae (ATCC 13047, ATCC 35549), and E. coli (ATCC 35218, ATCC 43888). Bacteria were grown in cation-adjusted Mueller-Hinton broth (CAMHB) to achieve a final inoculum of 1 × 10⁵ CFU/mL. CAMHB is selected for its batch-to-batch reproducibility, low levels of antimicrobial inhibitors, and ability to support the growth of most bacterial pathogens.
(§2) Briefly, lyophilized peptides were dissolved in 0.2% TFA + 0.4% BSA in water to 2.56 mg/mL, ultrasonicated for 20 min, diluted 10-fold into CAMHB, and then serially diluted 2-fold in 0.02% TFA + 0.04% BSA in CAMHB and assayed at a concentration of 0.25 to 128 μg/mL. Assays were set up using the Tecan Freedom EVO liquid handling robot and software (Tecan, Switzerland) with 50 μL of bacterial inoculum and 50 μL of peptide transferred into round-bottom 96-well microtiter plates. Each plate assay was performed in duplicate and incubated at 37 °C for 20 h without agitation. Bacterial growth was assessed using the BIOMIC V3 Image Analysis system (Giles Scientific, USA) and the MIC values were determined visually according to the Clinical and Laboratory Standards Institute (CLSI) guidelines.

[1] = test system: K. pneumoniae ATCC 700603; experiment: microbe, parasite or virus in culture; conditions: K. pneumoniae 700603; Week 1 (12/6/2023)
Experimental: as §1, §2

E. cloacae ATCC 35549 = experiment: microbe, parasite or virus in culture
Experimental: as §1, §2

E. faecium ATCC 19434 = experiment: microbe, parasite or virus in culture
Experimental: as §1, §2

K. pneumoniae ATCC 13883 = experiment: microbe, parasite or virus in culture
Experimental: as §1, §2

P. aeruginosa ATCC 27853 = experiment: microbe, parasite or virus in culture
Experimental: as §1, §2

E. faecium ATCC 49224 = experiment: microbe, parasite or virus in culture
Experimental: as §1, §2

A. baumannii ATCC 17978 = experiment: microbe, parasite or virus in culture
Experimental: as §1, §2

A. baumannii ATCC 19606 = experiment: microbe, parasite or virus in culture
Experimental: as §1, §2

E. coli ATCC 35218 = experiment: microbe, parasite or virus in culture; conditions: E. coli 35218; Week 1 (12/6/2023)
Experimental: as §1, §2

S. aureus ATCC 25923 = experiment: microbe, parasite or virus in culture
Experimental: as §1, §2

E. coli ATCC 43888 = experiment: microbe, parasite or virus in culture
Experimental: as §1, §2

S. aureus ATCC 43300 = experiment: microbe, parasite or virus in culture; conditions: S. aureus 43300; Week 1 (12/6/2023)
Experimental: as §1, §2

P. aeruginosa MRSN 5519 = experiment: microbe, parasite or virus in culture
Experimental: as §1, §2

[2] = set-up: method as in Biomatik (vendor); conditions: 1.0 mg peptide in 1.0 ml solvent; peptides synthesized by Biomatik; ref Biomatik (vendor); cited from earlier work
[3] = test system: Batrachochytrium dendrobatidis Bd-GPL strain JEL404; conditions: slope of growth, positive = inhibition, negative = no inhibition
Experimental: Bd-peptide challenge assays were conducted with the crude peptides extracted from the salamander skin secretions and with the 20 synthesized peptides. We followed methods by Pereria et al.[49] to conduct assays with the crude peptides using Bd-GPL strain JEL404 at 1 × 10^6 zoospores/mL. Briefly, skin peptide samples were pooled together based on species-site-injection (Table 1). Skin peptides samples were serially diluted 2-fold in MilliQ (Ultrapure Type 1) water and assayed at a concentration of 2.35–75 μg/mL based on starting peptide concentration available. For synthesized peptides, we conducted assays from 15.6 to 500 μg/ml. In both assays, we quantified percent inhibition of each well using slope of growth[90] in which positive values indicate inhibition and negative values indicate no inhibition.

A. baumannii 5075 = conditions: Week 1 (12/6/2023)
P. aeruginosa PA01 (Si) = experiment: microbe, parasite or virus in culture; type: cell-based
Text: Supplement 41522_2025_837_MOESM13_ESM.xlsx, sheet "Table_S13_ESKAPEE-MIC" | column: Bacterial MIC (µg/mL)

NRKGPRPPGFSPFR [PrAd-Eb9]
-156.474%: Bd inhibition score (percent inhibition), mean ([3]; synthesized peptide 125 μg/mL)
1.0mg peptide soluble in 1.0ml H2O: Suggest solvent (solubility) [2]
-120.796%: Bd inhibition score (percent inhibition), mean ([3]; synthesized peptide 15.625 μg/mL)
-129.548%: Bd inhibition score (percent inhibition), mean ([3]; synthesized peptide 31.25 μg/mL)
-160.396%: Bd inhibition score (percent inhibition), mean ([3]; synthesized peptide 250 μg/mL)
-188.605%: Bd inhibition score (percent inhibition), mean ([3]; synthesized peptide 500 μg/mL)
-134.776%: Bd inhibition score (percent inhibition), mean ([3]; synthesized peptide 62.5 μg/mL)
>128.000 µg/mL: Bacterial MIC (K. pneumoniae 4640; K. pneumoniae 4640, Week 1 (12/6/2023)) | Bacterial MIC (E. cloacae ATCC 13047; E. cloacae 13047, Week 1 (12/6/2023)) | Bacterial MIC [1] | Bacterial MIC (E. cloacae ATCC 35549; E. cloacae 35549, Week 1 (12/6/2023)) | Bacterial MIC (E. faecium ATCC 19434; E. faecium 19434, Week 1 (12/6/2023)) | Bacterial MIC (K. pneumoniae ATCC 13883; K. pneumoniae 13883, Week 1 (12/6/2023)) | Bacterial MIC (P. aeruginosa ATCC 27853; P. aeruginosa 27853, Week 1 (12/6/2023)) | Bacterial MIC (E. faecium ATCC 49224; E. faecium 49224, Week 1 (12/6/2023)) | Bacterial MIC (A. baumannii ATCC 17978; A. baumannii 17978, Week 1 (12/6/2023)) | Bacterial MIC (A. baumannii ATCC 19606; A. baumannii 19606, Week 1 (12/6/2023)) | Bacterial MIC (E. coli ATCC 35218) | Bacterial MIC (S. aureus ATCC 25923; S. aureus 25923, Week 1 (12/6/2023)) | Bacterial MIC (E. coli ATCC 43888; E. coli 43888, Week 1 (12/6/2023)) | Bacterial MIC (S. aureus ATCC 43300) | Bacterial MIC (P. aeruginosa MRSN 5519; P. aeruginosa 5519, Week 1 (12/6/2023)) | Bacterial MIC (A. baumannii 5075) | Bacterial MIC (P. aeruginosa PA01 (Si); P. aeruginosa PA01 (Si), not typical ESKAPEE strain, Week 1 (12/6/2023))

IRRPPGFSPFR [PrAd-Eb8]
>128.000 µg/mL: Bacterial MIC (K. pneumoniae 4640; 4640, 20 h) | Bacterial MIC (E. cloacae ATCC 13047; ATCC 13047, 20 h) | Bacterial MIC [1] | Bacterial MIC (E. cloacae ATCC 35549; ATCC 35549, 20 h) | Bacterial MIC (E. faecium ATCC 19434; ATCC 19434, 20 h) | Bacterial MIC (K. pneumoniae ATCC 13883; ATCC 13883, 20 h) | Bacterial MIC (P. aeruginosa ATCC 27853; ATCC 27853, 20 h) | Bacterial MIC (E. faecium ATCC 49224; ATCC 49224, 20 h) | Bacterial MIC (A. baumannii ATCC 17978; ATCC 17978, 20 h) | Bacterial MIC (A. baumannii ATCC 19606; ATCC 19606, 20 h) | Bacterial MIC (E. coli ATCC 35218) | Bacterial MIC (S. aureus ATCC 25923; ATCC 25923, 20 h) | Bacterial MIC (E. coli ATCC 43888; ATCC 43888, 20 h) | Bacterial MIC (S. aureus ATCC 43300) | Bacterial MIC (P. aeruginosa MRSN 5519; MRSN 5519, 20 h) | Bacterial MIC (A. baumannii 5075) | Bacterial MIC (P. aeruginosa PA01 (Si); Si)
1.0mg peptide soluble in 1.0ml H2O: Suggest solvent (solubility) [2]

CC[C@H](C)[C@H](NC(=O)[C@H](CO)NC(=O)[C@H](CO)NC(=O)[C@H](Cc1ccccc1)NC(=O)[C@H](CS)NC(=O)CNC(=O)[C@@H]1CCCN1C(=O)[C@H](CCCNC(=N)N)NC(=O)[C@H](CCCNC(=N)N)NC(=O)CNC(=O)[C@H](CS)NC(=O)[C@H](CCCNC(=N)N)NC(=O)[C@H](CCCNC(=N)N)NC(=O)[C@@H]1CCCN1C(=O)[C@H](C)NC(=O)CNC(=O)[C@H](CCCNC(=N)N)NC(=O)[C@@H](NC(=O)[C@H](CC(C)C)NC(=O)[C@H](CCCNC(=N)N)NC(=O)[C@@H](NC(=O)CNC(=O)[C@H](CCCNC(=N)N)NC(=O)[C@H](CCCCN)NC(=O)[C@@H](NC(=O)[C@H](Cc1c[nH]cn1)NC(=O)[C@@H](NC(=O)[C@@H](N)CCC(=O)O)[C@@H](C)CC)[C@@H](C)O)[C@@H](C)O)C(C)C)C(=O)NCC(=O)N[C@@H](CCCCN)C(=O)N[C@H](C(=O)N[C@@H](CCC(=O)O)C(=O)O)C(C)C [TrPr-Eb2] (H-EIHTKRGTRLVRGAPRRCGRRPGCFSSIGKVE-OH; N-terminus and C-terminus assumed)
1.0mg peptide soluble in 1.0ml H2O: Suggest solvent (solubility) [2]
>128.000 µg/mL: Bacterial MIC (K. pneumoniae 4640; 4640, 20 h) | Bacterial MIC (E. cloacae ATCC 13047; ATCC 13047, 20 h) | Bacterial MIC [1] | Bacterial MIC (E. cloacae ATCC 35549; ATCC 35549, 20 h) | Bacterial MIC (E. faecium ATCC 19434; ATCC 19434, 20 h) | Bacterial MIC (K. pneumoniae ATCC 13883; ATCC 13883, 20 h) | Bacterial MIC (P. aeruginosa ATCC 27853; ATCC 27853, 20 h) | Bacterial MIC (E. faecium ATCC 49224; ATCC 49224, 20 h) | Bacterial MIC (A. baumannii ATCC 17978; ATCC 17978, 20 h) | Bacterial MIC (A. baumannii ATCC 19606; ATCC 19606, 20 h) | Bacterial MIC (E. coli ATCC 35218) | Bacterial MIC (S. aureus ATCC 25923; ATCC 25923, 20 h) | Bacterial MIC (E. coli ATCC 43888; ATCC 43888, 20 h) | Bacterial MIC (S. aureus ATCC 43300) | Bacterial MIC (P. aeruginosa MRSN 5519; MRSN 5519, 20 h) | Bacterial MIC (A. baumannii 5075) | Bacterial MIC (P. aeruginosa PA01 (Si); Si)

LHTKRVQNKKKNGNRRQTIGKKCTAGFICKKEYLKLNPGIYSVIHD (cysteines drawn unpaired) [Tr-Eb1]
>128.000 µg/mL: Bacterial MIC (K. pneumoniae 4640; 4640, 20 h) | Bacterial MIC (E. cloacae ATCC 13047; ATCC 13047, 20 h) | Bacterial MIC [1] | Bacterial MIC (E. cloacae ATCC 35549; ATCC 35549, 20 h) | Bacterial MIC (E. faecium ATCC 19434; ATCC 19434, 20 h) | Bacterial MIC (K. pneumoniae ATCC 13883; ATCC 13883, 20 h) | Bacterial MIC (P. aeruginosa ATCC 27853; ATCC 27853, 20 h) | Bacterial MIC (E. faecium ATCC 49224; ATCC 49224, 20 h) | Bacterial MIC (A. baumannii ATCC 17978; ATCC 17978, 20 h) | Bacterial MIC (A. baumannii ATCC 19606; ATCC 19606, 20 h) | Bacterial MIC (E. coli ATCC 35218) | Bacterial MIC (S. aureus ATCC 25923; ATCC 25923, 20 h) | Bacterial MIC (E. coli ATCC 43888; ATCC 43888, 20 h) | Bacterial MIC (S. aureus ATCC 43300) | Bacterial MIC (P. aeruginosa MRSN 5519; MRSN 5519, 20 h) | Bacterial MIC (A. baumannii 5075) | Bacterial MIC (P. aeruginosa PA01 (Si); Si)
1.0mg peptide soluble in 1.0ml DMSO: Suggest solvent (solubility) [2]
